Experimental data as given in patent US4808584A, “Quinolinecarboxylic acid derivatives and antibacterial agent containing the same” (Kanebo, Ltd., priority 1987, dated 1989).
In brackets after ≈: the same amount, converted by molar mass. Where two headings read alike, the source gives them in different places.

What was measured:
Assay in all cases: Minimum inhibitory concentration (MIC)
Assay type in all cases: cell-based
[1] = tested on: Escherichia coli NIHJ JC-2; conditions: NIHJJC2; Escherichia coli NIHJ JC-2, Gram -
Protocol: (§1) The compounds of the present invention (A, C, E, F, G, H and I) and ofloxacin as control were dissolved in 0.1N aqueous potassium hydroxide to prepare a solution of 5000 μg/ml in concentration. The compounds of the present invention (B, D and J) were dissolved in sterilized distilled water to prepare a solution of 5000 μg/ml in concentration. Each solution was diluted with sterilized distilled water to prepare a standard solution with a concentration of each test compound: 1000 μg/ml. The test was carried out by a method approved by Japan Society of Chemotherapy [cf. Chemotherapy, 29, 76-79 (1981)(TOKYO)].

Escherichia coli KC-14 = conditions: KC14; Escherichia coli KC-14, Gram -
Protocol: as §1

[2] = tested on: Citrobacter freundii NIHJ 10018-68; conditions: NIHJ10018; Citrobacter freundii NIHJ 10018-68, Gram -
Protocol: as §1

[3] = tested on: Streptococcus faecalis IID 682; conditions: Enterococcus faecalis, IID682, Streptococcus faecalis IID 682, Gram +
Protocol: as §1

[4] = tested on: Staphylococcus aureus FDA 209P JC-1; conditions: FDA209P; Staphylococcus aureus FDA 209P JC-1, Gram +
Protocol: as §1

[5] = tested on: Acinetobacter calcoaceticus AC 54; conditions: Acinetobacter calcoaceticus, AC54, Acinetobacter calcoaceticus AC 54, Gram -
Protocol: as §1

[6] = tested on: Staphylococcus epidermidis IAM-1296; conditions: Staphylococcus epidermidis, IAM1296, Staphylococcus epidermidis IAM-1296, Gram +
Protocol: as §1

[7] = tested on: Pseudomonas aeruginosa E-2; conditions: E2; Pseudomonas aeruginosa E-2, Gram -
Protocol: as §1

[8] = tested on: Enterobacter aerogenes ATCC 13048; conditions: Klebsiella aerogenes, ATCC13048, Enterobacter aerogenes ATCC 13048, Gram -
Protocol: as §1

Proteus vulgaris OX-19 = conditions: OX19; Proteus vulgaris OX-19, Gram -; read-out: Minimum inhibitory concentration (MIC)
Protocol: as §1

[9] = tested on: Klebsiella pneumoniae PCI 602; conditions: Klebsiella pneumoniae
Protocol: as §1

[10] = tested on: Pseudomonas aeruginosa IFO 3445; conditions: Pseudomonas aeruginosa, IFO3445, Pseudomonas aeruginosa IFO 3445, Gram -
Protocol: as §1

[11] = tested on: Pseudomonas aeruginosa NCTC 10490; conditions: Pseudomonas aeruginosa, NCTC10490, Pseudomonas aeruginosa NCTC 10490, Gram -
Protocol: as §1

Shigella sonnei EW-33 = conditions: EW33; Shigella sonnei EW-33, Gram -
Protocol: as §1

[12] = tested on: Morganella morganii IFO 3848; conditions: IFO3848; Morganella morganii IFO 3848, Gram -
Protocol: as §1

[13] = tested on: Proteus mirabilis IFO 3849; conditions: IFO3849; Proteus mirabilis IFO 3849, Gram -
Protocol: as §1

[14] = tested on: Serratia marcescens IAM 1184; conditions: Serratia marcescens, IAM1184, Serratia marcescens IAM 1184, Gram -
Protocol: as §1

[15] = tested on: Salmonella typhimurium IID 971; conditions: Salmonella enterica, Salmonella typhimurium IID 971, Gram -; read-out: Minimum inhibitory concentration (MIC)
Protocol: as §1

Enterobacter cloacae 963 = conditions: Enterobacter cloacae 963, Gram -
Protocol: as §1

[16] = tested on: Staphylococcus aureus IID 803
Protocol: as §1

[17] = tested on: Bacillus subtilis ATCC 6633
Protocol: as §1

[18] = tested on: Micrococcus luteus ATCC 9341; conditions: ATCC9341; Micrococcus luteus ATCC 9341, Gram +
Protocol: as §1

[19] = PCI602, Klebsiella pneumoniae PCI 602, Gram -, read-out: Minimum inhibitory concentration (MIC)
[20] = IID803, Staphylococcus aureus IID 803, Gram +, read-out: Minimum inhibitory concentration (MIC)
[21] = ATCC6633, Bacillus subtilis ATCC 6633, Gram +, read-out: Minimum inhibitory concentration (MIC)

SMILES: O=C(O)c1c(=O)c2cc(F)c(N3CCN(O)CC3)c3c2n2c(csc12)CO3 [Compound (F), 9,1-Epoxymethano-7-fluoro-8-(4-hydroxy-1-piperazinyl)-5-oxo-5H-thiazolo[3,2-a]quinoline-4-carboxylic acid.1/4hydrate]
- MIC [1]: 0.2 µg/mL
- MIC (Escherichia coli KC-14): 0.1 µg/mL
- MIC [2]: 0.2 µg/mL
- MIC [3]: 1.56 µg/mL
- MIC [4]: 0.39 µg/mL
- MIC [5]: 1.56 µg/mL
- MIC [6]: 1.56 µg/mL
- MIC [7]: 1.56 µg/mL
- MIC [8]: 0.1 µg/mL
- MIC (Proteus vulgaris OX-19): 0.05 µg/mL
- MIC [9, 19]: 0.025 µg/mL
- MIC [10]: 1.56 µg/mL
- MIC [11]: 0.78 µg/mL
- MIC (Shigella sonnei EW-33): 0.05 µg/mL
- MIC [12]: 0.1 µg/mL
- MIC [13]: 0.2 µg/mL
- MIC [14]: 0.78 µg/mL
- MIC [15]: 0.05 µg/mL
- MIC (Enterobacter cloacae 963): 0.2 µg/mL
- MIC [16, 20]: 0.39 µg/mL
- MIC ([17]; Bacillus subtilis, ATCC6633, read-out: Minimum inhibitory concentration (MIC)): 0.1 µg/mL
- MIC [18]: 6.25 µg/mL

SMILES: O=C(O)c1c(=O)c2cc(F)c(N3CCCC3)c3c2n2c(csc12)CO3 [Compound (G), 9,1-Epoxymethano-7-fluoro-8-(1-pyrrolidinyl)-5-oxo-5H-thiazolo[3,2-a]quinoline-4-carboxylic acid]
- MIC [1]: 0.2 µg/mL (≈ 0.555 µM)
- MIC (Escherichia coli KC-14): 0.2 µg/mL (≈ 0.555 µM)
- MIC [2]: 3.13 µg/mL (≈ 8.69 µM)
- MIC [3]: 0.2 µg/mL
- MIC [4]: 0.025 µg/mL
- MIC [5]: 0.2 µg/mL (≈ 0.555 µM)
- MIC [6]: 0.05 µg/mL
- MIC [7]: 1.56 µg/mL (≈ 4.33 µM)
- MIC [8]: 0.1 µg/mL (≈ 0.277 µM)
- MIC (Proteus vulgaris OX-19): 0.1 µg/mL (≈ 0.277 µM)
- MIC [9, 19]: 0.1 µg/mL (≈ 0.277 µM)
- MIC [10]: 1.56 µg/mL (≈ 4.33 µM)
- MIC [11]: 0.78 µg/mL (≈ 2.16 µM)
- MIC (Shigella sonnei EW-33): 0.1 µg/mL (≈ 0.277 µM)
- MIC [12]: 0.2 µg/mL (≈ 0.555 µM)
- MIC [13]: 0.39 µg/mL (≈ 1.08 µM)
- MIC [14]: 1.56 µg/mL (≈ 4.33 µM)
- MIC [15]: 0.1 µg/mL (≈ 0.277 µM)
- MIC (Enterobacter cloacae 963): 0.39 µg/mL (≈ 1.08 µM)
- MIC ([16]; Staphylococcus aureus, IID803, read-out: Minimum inhibitory concentration (MIC)): 0.05 µg/mL (≈ 0.139 µM)
- MIC [17, 21]: 0.025 µg/mL (≈ 0.0694 µM)
- MIC [18]: 3.13 µg/mL

SMILES: O=C(O)c1c(=O)c2cc(F)c(N3CCC(O)C3)c3c2n2c(csc12)CO3 (stereo not shown) [Compound (H), 9,1-Epoxymethano-7-fluoro-8-(3-hydroxy-1-pyrrolidinyl)-5-oxo-5H-thiazolo[3,2-a]quinoline-4-carboxylic acid]
- MIC [1]: 0.05 µg/mL (≈ 0.133 µM)
- MIC (Escherichia coli KC-14): 0.05 µg/mL (≈ 0.133 µM)
- MIC [2]: 0.39 µg/mL (≈ 1.04 µM)
- MIC [3]: 0.2 µg/mL
- MIC [4]: 0.025 µg/mL
- MIC [5]: 0.1 µg/mL (≈ 0.266 µM)
- MIC [6]: 0.2 µg/mL
- MIC [7]: 0.39 µg/mL (≈ 1.04 µM)
- MIC [8]: 0.1 µg/mL (≈ 0.266 µM)
- MIC (Proteus vulgaris OX-19): 0.0125 µg/mL (≈ 0.0332 µM)
- MIC [9, 19]: 0.006 µg/mL (≈ 0.0159 µM)
- MIC [10]: 0.39 µg/mL (≈ 1.04 µM)
- MIC [11]: 0.39 µg/mL (≈ 1.04 µM)
- MIC (Shigella sonnei EW-33): 0.05 µg/mL (≈ 0.133 µM)
- MIC [12]: 0.1 µg/mL (≈ 0.266 µM)
- MIC [13]: 0.1 µg/mL (≈ 0.266 µM)
- MIC [14]: 0.39 µg/mL (≈ 1.04 µM)
- MIC [15]: 0.0125 µg/mL (≈ 0.0332 µM)
- MIC (Enterobacter cloacae 963): 0.1 µg/mL (≈ 0.266 µM)
- MIC [16, 20]: 0.025 µg/mL (≈ 0.0664 µM)
- MIC [17, 21]: 0.006 µg/mL (≈ 0.0159 µM)
- MIC [18]: 0.78 µg/mL

SMILES: NC1CCN(c2c(F)cc3c(=O)c(C(=O)O)c4scc5n4c3c2OC5)C1 (stereo not shown) [Compound (I), 9,1-Epoxymethano-7-fluoro-8-(3-amino-1-pyrrolidinyl)-5-oxo-5H-thiazolo[3,2-a]quinoline-4-carboxylic acid]
- MIC [1]: 0.2 µg/mL (≈ 0.533 µM)
- MIC (Escherichia coli KC-14): 0.1 µg/mL (≈ 0.266 µM)
- MIC [2]: 0.2 µg/mL (≈ 0.533 µM)
- MIC [3]: 0.78 µg/mL
- MIC [4]: 0.2 µg/mL
- MIC [5]: 0.78 µg/mL (≈ 2.08 µM)
- MIC [6]: 0.78 µg/mL
- MIC [7]: 0.78 µg/mL (≈ 2.08 µM)
- MIC [8]: 0.1 µg/mL (≈ 0.266 µM)
- MIC (Proteus vulgaris OX-19): 0.2 µg/mL (≈ 0.533 µM)
- MIC ([9]; PCI602, read-out: Minimum inhibitory concentration (MIC)): 0.05 µg/mL (≈ 0.133 µM)
- MIC [10]: 0.78 µg/mL (≈ 2.08 µM)
- MIC [11]: 0.39 µg/mL (≈ 1.04 µM)
- MIC (Shigella sonnei EW-33): 0.1 µg/mL (≈ 0.266 µM)
- MIC [12]: 0.2 µg/mL (≈ 0.533 µM)
- MIC [13]: 0.39 µg/mL (≈ 1.04 µM)
- MIC [14]: 0.78 µg/mL (≈ 2.08 µM)
- MIC [15]: 0.1 µg/mL (≈ 0.266 µM)
- MIC (Enterobacter cloacae 963): 0.2 µg/mL (≈ 0.533 µM)
- MIC [16, 20]: 0.39 µg/mL (≈ 1.04 µM)
- MIC [17, 21]: 0.2 µg/mL (≈ 0.533 µM)
- MIC [18]: 1.56 µg/mL
